Measured values as given in publication PMC2984425, “Safety and pharmacokinetics of novel selective vascular endothelial growth factor receptor-2 inhibitor YN968D1 in patients with advanced malignancies” (BMC Cancer, 2010).

Test system: patients with advanced solid tumors
Assay: Treatment-related adverse events graded by NCI-CTC v3.0
Type: in vivo, human
Description: Medical records and laboratory tests were obtained during screening. Physical examination, routine laboratory evaluations, and performance status were assessed at baseline and at specified time points throughout the trial. AEs and concomitant medications were recorded at the end of each cycle. The safety evaluation period extended through 30 days from the last dose of study drug or through recovery to grade 1 or better from all acute toxicities associated with drug administration. Toxicity was evaluated and graded according to the NCI-CTC for Adverse Events, version 3.0.

SMILES: N#CC1(c2ccc(NC(=O)c3cccnc3NCc3ccncc3)cc2)CCCC1 [apatinib]
- Hoarseness grade 1-2, No. (850 mg cohort): 1
- Hyperbilirubinemia grade 1-2, % (850 mg cohort): 23.1%
- Hyperbilirubinemia grade 1-2, No. (850 mg cohort): 3
- Hypertension grade 1-2, % (850 mg cohort): 69.2%
- Hypertension grade 1-2, No. (850 mg cohort): 9
- Infection grade 1-2, % (850 mg cohort): 23.1%
- Infection grade 1-2, No. (850 mg cohort): 3
- Mucosal ulcers grade 1-2, % (850 mg cohort): 15.4%
- Mucosal ulcers grade 1-2, No. (850 mg cohort): 2
- Neutropenia grade 1-2, % (850 mg cohort): 30.8%
- Neutropenia grade 1-2, No. (850 mg cohort): 4
- Neutropenia grade 3-4, % (850 mg cohort): 15.4%
- Neutropenia grade 3-4, No. (850 mg cohort): 2
- Pain grade 1-2, % (850 mg cohort): 23.1%
- Pain grade 1-2, No. (850 mg cohort): 3
- Proteinuria grade 1-2, % (850 mg cohort): 38.5%
- Proteinuria grade 1-2, No. (850 mg cohort): 5
- Proteinuria grade 3-4, % (850 mg cohort): 7.7%
- Proteinuria grade 3-4, No. (850 mg cohort): 1
- Rash grade 1-2, % (850 mg cohort): 7.7%
- Rash grade 1-2, No. (850 mg cohort): 1
- Thrombocytopenia grade 1-2, % (850 mg cohort): 15.4%
- Thrombocytopenia grade 1-2, No. (850 mg cohort): 2
- Thrombocytopenia grade 3-4, % (850 mg cohort): 7.7%
- Thrombocytopenia grade 3-4, No. (850 mg cohort): 1
- Transaminase Increased grade 1-2, % (850 mg cohort): 23.1%
- Transaminase Increased grade 1-2, No. (850 mg cohort): 3
- Transaminase Increased grade 3-4, % (850 mg cohort): 15.4%
- Transaminase Increased grade 3-4, No. (850 mg cohort): 2
- Vomiting grade 3-4, % (850 mg cohort): 7.7%
- Vomiting grade 3-4, No. (850 mg cohort): 1
- Anemia grade 3-4, % (1000 mg cohort): 33.3%
- Anemia grade 3-4, No. (1000 mg cohort): 1
- Anorexia grade 1-2, % (1000 mg cohort): 33.3%
- Anorexia grade 1-2, No. (1000 mg cohort): 1
- Fatigue grade 1-2, % (1000 mg cohort): 33.3%
- Fatigue grade 1-2, No. (1000 mg cohort): 1
- Fatigue grade 3-4, % (1000 mg cohort): 33.3%
- Fatigue grade 3-4, No. (1000 mg cohort): 1
- Hand-Food Syndrome grade 3-4, % (1000 mg cohort): 33.3%
- Hand-Food Syndrome grade 3-4, No. (1000 mg cohort): 1
- Hypertension grade 1-2, % (1000 mg cohort): 66.7%
- Hypertension grade 1-2, No. (1000 mg cohort): 2
- Hypertension grade 3-4, % (1000 mg cohort): 33.3%
- Hypertension grade 3-4, No. (1000 mg cohort): 1
- Infection grade 1-2, % (1000 mg cohort): 33.3%
- Infection grade 1-2, No. (1000 mg cohort): 1
- Mucosal ulcers grade 1-2, % (1000 mg cohort): 66.7%
- Mucosal ulcers grade 1-2, No. (1000 mg cohort): 2
- Neutropenia grade 1-2, % (1000 mg cohort): 100%
- Neutropenia grade 1-2, No. (1000 mg cohort): 3
- Pain grade 1-2, % (1000 mg cohort): 33.3%
- Pain grade 1-2, No. (1000 mg cohort): 1
- Thrombocytopenia grade 1-2, % (1000 mg cohort): 33.3%
- Thrombocytopenia grade 1-2, No. (1000 mg cohort): 1
- Transaminase Increased grade 1-2, % (1000 mg cohort): 33.3%
- Transaminase Increased grade 1-2, No. (1000 mg cohort): 1
- Transaminase Increased grade 3-4, % (1000 mg cohort): 33.3%
- Transaminase Increased grade 3-4, No. (1000 mg cohort): 1
- Albinism grade 1-2, % (Total, all cohorts): 2.2%
- Albinism grade 1-2, No. (Total, all cohorts): 1
- Anemia grade 1-2, % (Total, all cohorts): 15.2%
- Anemia grade 1-2, No. (Total, all cohorts): 7
- Anemia grade 3-4, % (Total, all cohorts): 4.3%
- Anemia grade 3-4, No. (Total, all cohorts): 2
- Anorexia grade 1-2, % (Total, all cohorts): 15.2%
- Anorexia grade 1-2, No. (Total, all cohorts): 7
- Diarrhea grade 1-2, % (Total, all cohorts): 13%
- Diarrhea grade 1-2, No. (Total, all cohorts): 6
- Dyspnea grade 1-2, % (Total, all cohorts): 2.2%
- Dyspnea grade 1-2, No. (Total, all cohorts): 1
- Fatigue grade 1-2, % (Total, all cohorts): 21.7%
- Fatigue grade 1-2, No. (Total, all cohorts): 10
- Fatigue grade 3-4, % (Total, all cohorts): 4.3%
- Fatigue grade 3-4, No. (Total, all cohorts): 2
- Hand-Food Syndrome grade 1-2, % (Total, all cohorts): 32.6%
- Hand-Food Syndrome grade 1-2, No. (Total, all cohorts): 15
- Hand-Food Syndrome grade 3-4, % (Total, all cohorts): 13%
- Hand-Food Syndrome grade 3-4, No. (Total, all cohorts): 6
- Hemorrhage grade 1-2, % (Total, all cohorts): 21.7%
- Hemorrhage grade 1-2, No. (Total, all cohorts): 10
- Hemorrhage grade 3-4, % (Total, all cohorts): 2.2%
- Hemorrhage grade 3-4, No. (Total, all cohorts): 1
- Hoarseness grade 1-2, % (Total, all cohorts): 8.7%
- Hoarseness grade 1-2, No. (Total, all cohorts): 4
- Hyperbilirubinemia grade 1-2, % (Total, all cohorts): 6.5%
- Hyperbilirubinemia grade 1-2, No. (Total, all cohorts): 3
- Hyperbilirubinemia grade 3-4, % (Total, all cohorts): 2.2%
- Hyperbilirubinemia grade 3-4, No. (Total, all cohorts): 1
- Hypertension grade 1-2, % (Total, all cohorts): 63%
- Hypertension grade 1-2, No. (Total, all cohorts): 29
- Hypertension grade 3-4, % (Total, all cohorts): 6.5%
- Hypertension grade 3-4, No. (Total, all cohorts): 3
- Infection grade 1-2, % (Total, all cohorts): 21.7%
- Infection grade 1-2, No. (Total, all cohorts): 10
- Mucosal ulcers grade 1-2, % (Total, all cohorts): 17.4%
- Mucosal ulcers grade 1-2, No. (Total, all cohorts): 8
- Mucosal ulcers grade 3-4, % (Total, all cohorts): 4.3%
- Mucosal ulcers grade 3-4, No. (Total, all cohorts): 2
- Neutropenia grade 1-2, % (Total, all cohorts): 34.8%
- Neutropenia grade 1-2, No. (Total, all cohorts): 16
- Neutropenia grade 3-4, % (Total, all cohorts): 8.7%
- Neutropenia grade 3-4, No. (Total, all cohorts): 4
- Pain grade 1-2, % (Total, all cohorts): 26.1%
- Pain grade 1-2, No. (Total, all cohorts): 12
- Pain grade 3-4, % (Total, all cohorts): 8.7%
- Pain grade 3-4, No. (Total, all cohorts): 4
- Proteinuria grade 1-2, % (Total, all cohorts): 34.8%
- Proteinuria grade 1-2, No. (Total, all cohorts): 16
- Proteinuria grade 3-4, % (Total, all cohorts): 13%
- Proteinuria grade 3-4, No. (Total, all cohorts): 6
- Rash grade 1-2, % (Total, all cohorts): 6.5%
- Rash grade 1-2, No. (Total, all cohorts): 3
- Thrombocytopenia grade 1-2, % (Total, all cohorts): 26.1%
- Thrombocytopenia grade 1-2, No. (Total, all cohorts): 12
- Thrombocytopenia grade 3-4, % (Total, all cohorts): 2.2%
- Thrombocytopenia grade 3-4, No. (Total, all cohorts): 1
- Transaminase Increased grade 1-2, % (Total, all cohorts): 28.3%
- Transaminase Increased grade 1-2, No. (Total, all cohorts): 13
- Transaminase Increased grade 3-4, % (Total, all cohorts): 8.7%
- Transaminase Increased grade 3-4, No. (Total, all cohorts): 4
- Vomiting grade 1-2, % (Total, all cohorts): 8.7%
- Vomiting grade 1-2, No. (Total, all cohorts): 4
- Vomiting grade 3-4, % (Total, all cohorts): 2.2%
- Vomiting grade 3-4, No. (Total, all cohorts): 1
- hypertension, drug-related AE, all grades (all patients, N = 46): 69.5%
- proteinuria, drug-related AE, all grades (all patients, N = 46): 47.8%
- bleeding, patients (all patients, most at tumor sites): 23.9%
- patients who developed HFS that progressed to grade 3 (in vivo): About 10%
